Experimental data published in patent publication US20210087217A1, “NUCLEOTIDE HEMI-SULFATE SALT FOR THE TREATMENT OF HEPATITIS C VIRUS” (Atea Pharmaceuticals, Inc., priority 2017, published 2021).
Values belong to the compound of their own block, whether it stands above or below them.

Assays:
[1] = Storage of Compound 1 forms and amorphous salts at 25° C./60% RH for 14 days (HPLC, XRPD, observation)
Method: This initial characterization was followed by storage at 25° C./60% relative humidity (RH) for 14 days with analysis by […] and XRPD after 7 and 14 days. FIG. 4A is the XRPD after 14 days at 25° C./60% (RH).
The samples were then frozen with the solvent removed by lyophilization.
The samples were then subjected to storage at 25° C./60% relative humidity (RH) for 14 days with analysis by HPLC and XRPD after 7 (FIG. 4B) and 14 days (FIG. 5A).

[2] = target: human mitochondrial RNA-dependent RNA polymerase (POLRMT) (Homo sapiens, UniProt O00411); test: Incorporation of nucleotide analog triphosphates by human mitochondrial RNA polymerase; type: biochemical
Method: The incorporation of these analogs by human mitochondrial RNA-dependent RNA polymerase (POLRMT) were determined according to Arnold et al. (Sensitivity of Mitochondrial Transcription and Resistance of RNA Polymerase II Dependent Nuclear Transcription to Antiviral Ribonucleotides. PLoS Pathog., 2012, 8, e1003030).

[3] = Plasma profiles of Compound 2 metabolites in rats; settings: male, Sprague-Dawley, rat, plasma, po, 500 mg/kg
Method: The results for a single 500 mg/kg dose in rats is shown in FIG. 17 and the results for a single 30, 100, or 300 mg/kg dose in monkeys is shown in FIG. 18.

[4] = Plasma profiles of Compound 2 metabolites in monkeys; type: in vivo, cynomolgus monkeys; settings: cynomolgus monkey, plasma, po
[5] = Single ascending dose study of Compound 2 in healthy volunteers (Part A): safety, tolerability, pharmacokinetic; type: in vivo, human; settings: both sexes, human, plasma, oral; for concentration at 24 h: read-out: C24h
Method: Compound 2 was tested in a single ascending dose (SAD) study to measure its safety, tolerability, and pharmacokinetic in healthy subjects (Part A). Part A was a randomized, double-blind, placebo-controlled SAD study. Healthy subjects in Part A received a single dose of Compound 2 or placebo in the fasting state. Subjects were confined to the clinic from Day −1 to Day 6.
Dosing in each cohort was staggered such that 2 subjects (1 active:1 placebo) were evaluated for 48 hours after dosing before the remainder of the cohort was dosed. Each cohort received Compound 2 in ascending order. Dosing of sequential cohorts occurred based on review of available safety data (through Day 5) and plasma pharmacokinetic data (through 24 h) of the prior cohort.
As pharmacokinetic and safety data emerged from prior cohorts, doses evaluated in Cohorts 3a-4a were adjusted by increments no more than 100 mg.
Healthy volunteers in the Part A portion of the study were male and female subjects between the ages of 18 and 65. Active and placebo recipients were pooled within each Part A cohort to preserve the study blind.
(§1) Pharmacokinetic of Compound 1 and nucleoside metabolite 1-7 were measured following the single dose of Compound 2. […] Values are reported as mean±SD, except or Tmax where median (range) is reported.

[6] = Single ascending dose study of Compound 2 in GT1-HCV infected patients (Part B): safety, tolerability, pharmacokinetic; type: in vivo, human; settings: human; for Cmax / AUC / half-life / Tmax: in vivo; for Cmax / AUC / half-life / concentration at 24 h: GT1-HCV infected patients, mean±SD; for concentration at 24 h: plasma, oral, read-out: C24h
Method: Subjects in Part B received a single dose of Compound 2 in the fasting state. Patients were confined to the clinic from Day −1 to Day 6.
Part B was initiated after the safety (through Day 5) and plasma pharmacokinetic (through 24 h) data review from Cohort 3a in Part A. Available safety data (through Day 5) and pharmacokinetic data (through 24 h) was reviewed for the first cohort in Part B (Cohort 1b) before enrolling subsequent Part B cohorts. Subsequent Part B cohorts were only dosed following review of available safety and pharmacokinetic data from the respective doses in Part A as well as available safety (through Day 5) from the prior Part B cohorts.
Patients infected with HCV were treatment-naïve, non-cirrhotic GT1-infected subjects with a viral load of ≥5 log10 IU/mL.
as §1
Plasma exposure of Compound 1 was dose-related while exposure of metabolite 1-7 was dose-proportional.

[7] = incorporation by human mitochondrial RNA polymerase
[8] = 100 mg, Compound 2 100 mg, based on 24-hr profile
[9] = 300 mg, Compound 2 300 mg (first 300 mg line)
[10] = 300 mg, Compound 2 300 mg (first 300 mg line), based on 24-hr profile
[11] = 300 mg, Compound 2 300 mg (second 300 mg line)

Chain of human mitochondrial RNA-dependent RNA polymerase (POLRMT) (O00411 42-1230): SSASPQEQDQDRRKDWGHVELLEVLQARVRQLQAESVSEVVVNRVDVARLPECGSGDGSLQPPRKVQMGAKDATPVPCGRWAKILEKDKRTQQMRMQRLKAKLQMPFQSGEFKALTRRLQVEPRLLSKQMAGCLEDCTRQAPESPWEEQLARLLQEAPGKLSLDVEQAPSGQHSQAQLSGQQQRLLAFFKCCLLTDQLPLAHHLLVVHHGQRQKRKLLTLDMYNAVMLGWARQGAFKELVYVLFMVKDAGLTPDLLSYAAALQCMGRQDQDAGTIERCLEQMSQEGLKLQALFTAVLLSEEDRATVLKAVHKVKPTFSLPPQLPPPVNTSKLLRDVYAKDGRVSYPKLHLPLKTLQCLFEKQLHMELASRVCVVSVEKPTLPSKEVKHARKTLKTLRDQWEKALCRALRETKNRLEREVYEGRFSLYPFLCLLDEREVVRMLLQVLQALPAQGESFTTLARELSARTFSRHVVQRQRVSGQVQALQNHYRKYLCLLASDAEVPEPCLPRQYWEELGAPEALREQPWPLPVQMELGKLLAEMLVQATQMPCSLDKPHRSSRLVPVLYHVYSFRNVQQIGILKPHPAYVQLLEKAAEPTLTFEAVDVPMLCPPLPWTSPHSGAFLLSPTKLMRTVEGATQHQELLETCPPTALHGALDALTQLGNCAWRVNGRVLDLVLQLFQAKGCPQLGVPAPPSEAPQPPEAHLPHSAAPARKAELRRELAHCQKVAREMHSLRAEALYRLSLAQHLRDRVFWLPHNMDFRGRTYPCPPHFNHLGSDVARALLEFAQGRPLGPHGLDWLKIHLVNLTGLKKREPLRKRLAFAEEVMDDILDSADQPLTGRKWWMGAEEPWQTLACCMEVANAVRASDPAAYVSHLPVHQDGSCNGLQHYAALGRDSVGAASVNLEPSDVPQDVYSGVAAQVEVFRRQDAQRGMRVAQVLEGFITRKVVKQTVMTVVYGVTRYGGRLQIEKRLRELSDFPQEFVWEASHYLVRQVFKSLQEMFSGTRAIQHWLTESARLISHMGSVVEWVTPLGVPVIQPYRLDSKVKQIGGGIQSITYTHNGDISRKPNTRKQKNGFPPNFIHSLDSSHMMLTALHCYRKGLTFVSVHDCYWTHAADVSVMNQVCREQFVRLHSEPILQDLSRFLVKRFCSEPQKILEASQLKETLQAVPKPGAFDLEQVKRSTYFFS

Structure (SMILES): CNc1nc(N)nc2c1ncn2[C@@H]1O[C@H](CO[P@@](=O)(N[C@@H](C)C(=O)OC(C)C)Oc2ccccc2)[C@@H](O)[C@@]1(C)F [Sample 1-3]
HPLC purity ([1]; 0 days at 25° C./60% RH): 99.7
Observation ([1]; 0 days at 25° C./60% RH): White solid
HPLC purity ([1]; 7 days at 25° C./60% RH): 99.6
Observation ([1]; 7 days at 25° C./60% RH): White solid
HPLC purity ([1]; 14 days at 25° C./60% RH): 99.4
Observation ([1]; 14 days at 25° C./60% RH): White solid

Incorporation of active triphosphate by human mitochondrial RNA polymerase [2]: poorlyincorporated
Relative Efficiency ([2]; (Kpol/Kd,app)analog nucleotide/(Kpol/Kd,app)natural nucleotide): 2.2 × 10^−6
Kpol [2, 7]: 0.0017 s⁻¹
Kpol/Kd,app [2, 7]: 8.3e-06 µM⁻¹ s⁻¹
Kd ([2]; incorporation by human mitochondrial RNA polymerase, read-out: Kd,app): 204 µM
Structure (SMILES): C[C@@]1(F)[C@H](O)[C@@H](COP(=O)(O)OP(=O)(O)OP(=O)(O)O)O[C@H]1n1cnc2c(=O)[nH]c(N)nc21 [Metabolite 1-6]

Kpol [2, 7]: 0.051 s⁻¹
Structure (SMILES): C[C@@]1(O)[C@H](O)[C@@H](COP(=O)(O)OP(=O)(O)OP(=O)(O)O)O[C@H]1n1cnc2c(=O)[nH]c(N)nc21 [2'-C-methyl GTP]

Structure (SMILES): CNc1nc(N)nc2c1ncn2[C@@H]1O[C@H](CO[P@@](=O)(N[C@@H](C)C(=O)OC(C)C)Oc2ccccc2)[C@@H](O)[C@@]1(C)F [Compound 5]
Hygroscopicity ([1]; listed as HCl salt): more hydroscopic than the hemisulfate salt

Structure (SMILES): CNc1nc(N)nc2c1ncn2C1OC(COP(=O)(NC(C)C(=O)OC(C)C)Oc2ccccc2)C(O)C1(C)F.O=S(=O)(O)O (stereo not drawn) [Sample 1-5]
HPLC purity ([1]; 0 days at 25° C./60% RH): 98.4
Observation ([1]; 0 days at 25° C./60% RH): White solid
Physical/chemical stability and appearance on storage ([1]; 25° C./60% RH, 14 days): physically unstable
HPLC purity ([1]; 7 days at 25° C./60% RH): 55.7
Observation ([1]; 7 days at 25° C./60% RH): Sticky white
Observation ([1]; 14 days at 25° C./60% RH): Sticky gum

Structure (SMILES): C[C@@]1(F)[C@H](O)[C@@H](CO)O[C@H]1n1cnc2c(=O)[nH]c(N)nc21 [Metabolite 1-7, 2-amino-9-((2R,3R,4R,5R)-3-fluoro-4-hydroxy-5-(hydroxymethyl)-3-methyltetrahydrofuran-2-yl)-1,9-dihydro-6H-purin-6-one]
AUC(0-t) [3]: 9640 ng·h/mL
Cmax [3]: 541 ng/mL
Tmax [3]: 6 to 8 h
half-life [3]: 918 min
AUC(0-t) ([4]; 30 mg/kg): 1620 ng·h/mL
Cmax ([4]; 30 mg/kg): 42.5 ng/mL
Tmax ([4]; 30 mg/kg): 12 to 24 h
half-life ([4]; 30 mg/kg): 690 min
AUC(0-t) ([4]; 100 mg/kg): 3030 ng·h/mL
Cmax ([4]; 100 mg/kg): 131 ng/mL
half-life ([4]; 100 mg/kg): 900 min
AUC(0-t) ([4]; 300 mg/kg): 3660 ng·h/mL
Cmax ([4]; 300 mg/kg): 93.6 ng/mL
Tmax ([4]; 300 mg/kg): 4 to 24 h
half-life ([4]; 300 mg/kg): 1130 min
AUC ([5]; 50 mg): 285 ± 69.4 ng·h/mL
Cmax ([5]; 50 mg): 27.9 ± 5.62 ng/mL
Tmax ([5]; 50 mg): 3.5 h
half-life ([5]; 50 mg): 424 ± 275 min
concentration at 24 h ([5]; 50 mg): 2.28 ± 0.95 ng/mL
AUC ([5]; 100 mg): 663 ± 242 ng·h/mL
Cmax ([5]; 100 mg): 56.6 ± 14 ng/mL
half-life ([5]; 100 mg): 1060 ± 882 min
concentration at 24 h ([5]; 100 mg): 4.45 ± 1.87 ng/mL
AUC ([5]; 200 mg): 1520 ± 497 ng·h/mL
Cmax ([5]; 200 mg): 111 ± 38.8 ng/mL
half-life ([5]; 200 mg): 954 ± 477 min
concentration at 24 h ([5]; 200 mg): 13.7 ± 5.09 ng/mL
AUC ([5]; 400 mg): 2340 ± 598 ng·h/mL
Cmax ([5]; 400 mg): 153 ± 49.4 ng/mL
half-life ([5]; 400 mg): 936 ± 382 min
concentration at 24 h ([5]; 400 mg): 23.5 ± 6.31 ng/mL
Cmax ([6]; 100 mg, Compound 2 100 mg): 50.2 ± 15.4 ng/mL
AUC [6, 8]: 538 ± 103 ng·h/mL
half-life [6, 8]: 504 ± 258 min
Tmax ([6]; 100 mg, Tmax): 6 h
Tmax ([6]; 300 mg): 4.0 (3.0-6.0) h
Cmax [6, 9]: 96.9 ± 38.9 ng/mL
AUC [6, 10]: 1130 ± 273 ng·h/mL
half-life [6, 10]: 486 ± 144 min
AUC [6, 11]: 1420 ± 221 ng·h/mL
Cmax [6, 11]: 123 ± 16.6 ng/mL
Tmax ([6]; 300 mg, Tmax): 6 h
AUC ([6]; 400 mg, Compound 2 400 mg): 2130 ± 120 ng·h/mL
Cmax ([6]; 400 mg, Compound 2 400 mg): 160 ± 36.7 ng/mL
half-life ([6]; 400 mg, Compound 2 400 mg): 696 ± 72.6 min
AUC ([6]; 600 mg, Compound 2 600 mg): 2180 ± 116 ng·h/mL
Cmax ([6]; 600 mg, Compound 2 600 mg): 198 ± 19.3 ng/mL
concentration at 24 h ([6]; 100 mg, Compound 2 100 mg): 3.6 ± 0.4 ng/mL
concentration at 24 h [6, 9]: 10.9 ± 3.51 ng/mL
concentration at 24 h [6, 11]: 18 ± 8.83 ng/mL
concentration at 24 h ([6]; 400 mg, Compound 2 400 mg): 22.5 ± 3.29 ng/mL
concentration at 24 h ([6]; 600 mg, Compound 2 600 mg): 25.8 ± 4.08 ng/mL
